From patent US20180251847A1, “METHOD OF PREDICTING THE TUMOR RESPONSE TO DNA METHYLATION INHIBITORS AND ALTERNATIVE THERAPEUTIC REGIMEN FOR OVERCOMING RESISTANCE” (PALACKY UNIVERSITY, OLOMOUC, priority 2014, published 2018) come the findings set out here.

For assay [1], the system named is DAC resistant cell lines. The assay is described as follows: MTT based cell survival assay, DAC resistant cell lines as a group. As to conditions: Homo sapiens, all of the resistant cell lines, read-out: resistance to DAC (IC50). The method, then: The DAC resistant HCT116 cell lines were developed using two methods. […] After long term exposure of the cells to cytotoxic dose of the drug, the bulk population was determined to be resistant.
(§1) For cross validation of data obtained from comparative studies of HCT116 parental and resistant cells, we further developed DAC resistant MCF-7 and HL-60 cell lines. […] However, DAC resistant HL-60 cells were obtained as a gift from the author (Qin T. et al., Blood 2009; 113, 659-67) and was further selected in our laboratory by treatment with 5 μM DAC.
Resistance to DAC was confirmed by the MTT-based cell survival assay and resistance index was calculated as the fold increase in the IC50 of the resistant cell lines compared with the untreated control. All of the resistant cell lines were >100 μM resistant to DAC. […]
(§2) To determine the IC50 of the epigenetic drugs (Tocris Bioscience, Bristol, United Kingdom), four independent experiments were performed using triplicate wells of 96 well plates. […] The wells with medium alone were included alongside as blank for absorbance readings. […]
(§3) Cross resistance was determined as the fold increase, whereas, the sensitivity was determined as the fold decrease in the IC50 of the drugs for the resistant cell lines compared to their genetically identical drug sensitive counterpart.

Assay [2] deals with R1.3 (HCT116-RDAC). Description: MTT based cell survival assay, DAC resistant HCT116 clone R1.3. The arrangement: species or system human. The method, then: (§4) The DAC resistant HCT116 cell lines were developed using two methods.
(§5) The method is primarily based on reduction of yellow colored tetrazolium salt, 3-(4,5-dimethylthiazol-2-yl)-2,5-diphenyltetrazolium bromide (MTT) to insoluble purple colored formazan crystals by NAD(P)H-dependent oxidoreductase enzymes in mitochondria of the viable cell.
(§6) Cells in 80 μL of medium were plated in each of the experimental and the control wells, followed by addition of 20 μL medium with five-fold drug concentration to experimental wells. The wells with medium alone were included alongside as blank for absorbance readings. After 72 h of drug treatment, 10 μL MTT (Sigma-Aldrich) prepared in 1×PBS (5 mg/mL) was added to all wells including blank and control, and incubated until the purple formazan crystals were visible after which 100 μL of detergent (10% SDS, pH: 5.5) was added and the plates were incubated overnight to solubilize the formazan and the cellular material.
as §3

The test system of assay [3] is R1.1 (HCT116-RDAC). Description: MTT based cell survival assay, DAC resistant HCT116 clone R1.1. The arrangement: species or system human. The method, then: as §4, §5, §6, §3
In assay [4] the test system is MCF-7_RDAC. Description: MTT based cell survival assay, DAC resistant MCF-7. The arrangement: species or system human. As for the experimental part: as §1
MTT based cell survival assay was performed in either case, whether to determine the cross-resistance of the DAC resistant cell lines towards inhibitors of DNA methyltransferases, histone acetyltransferases, histone methyltransferases, histone deacetylases, and histone demethylases, or to determine their sensitivity towards selective BET bromodomain inhibitors. […]
as §2, §3

Where [5] appears, read: Homo sapiens, HCT-116, 72 h, read-out: Mean IC50.

With `Nc1ncn([C@H]2C[C@H](O)[C@@H](CO)O2)c(=O)n1` [DAC, 2′-deoxy-5-azacytidine], the IC50 in assay [1] is above 100 µM; in assay [2] (setting [5]), above 100 µM; in assay [3] (setting [5]), above 100 µM; in assay [4] (Homo sapiens, MCF7, read-out: Mean IC50), above 100 µM. For the same molecule, the “fold change (resistance index)” value in assay [2] (IC50 R1.3 / IC50 HCT116) and in assay [3] (IC50 R1.1 / IC50 HCT116) was “(>357) fold” throughout. For the same molecule, the “fold change (resistance)” value in assay [4] (IC50 MCF-7_RDAC / IC50 MCF-7) was above 421 fold.

What is called IC50 is the concentration needed to halve the response being measured.
